In ChEMBL document CHEMBL1158843, “Development of a radiochemical cyclooxygenase-1 and -2 in vitro assay for identification of natural products as inhibitors of prostaglandin biosynthesis” (J Nat Prod, 1998):

Biological target: T1, Prostaglandin G/H synthase 1 (Bos taurus) (UniProt O62664)
T1 sequence (whole entry): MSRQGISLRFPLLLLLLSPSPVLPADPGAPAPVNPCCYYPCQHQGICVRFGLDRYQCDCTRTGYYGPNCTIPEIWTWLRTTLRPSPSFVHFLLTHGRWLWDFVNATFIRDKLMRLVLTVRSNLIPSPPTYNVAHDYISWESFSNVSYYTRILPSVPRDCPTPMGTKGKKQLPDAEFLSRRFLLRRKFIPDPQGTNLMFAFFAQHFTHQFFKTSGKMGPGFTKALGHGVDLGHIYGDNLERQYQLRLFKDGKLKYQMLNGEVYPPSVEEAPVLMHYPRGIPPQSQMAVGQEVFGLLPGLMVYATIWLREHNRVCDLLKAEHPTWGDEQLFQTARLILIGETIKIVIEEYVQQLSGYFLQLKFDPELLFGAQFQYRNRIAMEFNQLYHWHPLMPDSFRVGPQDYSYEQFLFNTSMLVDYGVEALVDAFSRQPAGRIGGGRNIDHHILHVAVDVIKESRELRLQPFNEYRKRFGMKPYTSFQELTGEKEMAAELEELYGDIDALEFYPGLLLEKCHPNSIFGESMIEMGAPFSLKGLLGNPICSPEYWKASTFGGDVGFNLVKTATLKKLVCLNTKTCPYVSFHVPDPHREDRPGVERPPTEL
Assay: Inhibition of bovine seminal microsomal COX1 assessed as PGE2 production at 100 uM preincubated for 10 mins

inhibition: 9%
Compound: CS(=O)(=O)Nc1ccc([N+](=O)[O-])cc1OC1CCCCC1
